{"source": "patent US20100316728A1", "about": "“Therapeutic mask and Method of Treatment Employing the Same” (priority 2009, published 2010)", "assay_type_in_all_cases": "in vivo, human", "key": {"patients [1]": {"test_system": "patients", "assay": "Patient questionnaire on mask application, removal and skin reactions (dryness, burning, redness, itching, stinging)", "conditions": "per patient, yes/no"}, "patients [2]": {"test_system": "patients", "assay": "Pain level felt by patients using the mask (with Lidocaine)"}, "patients [3]": {"test_system": "patients", "assay": "Numbness felt by patients using the mask (with Lidocaine)", "conditions": "per patient", "excerpt": "A separate and distinct benefit has been discovered through the use of the instant invention. […] This aids the speed in which the process can be performed on a patient."}, "[4]": {"conditions": "Pain Rate section, Results with Lidocaine, right side = side without mask, per patient"}, "[5]": {"conditions": "Results with Lidocaine, left side, mask on one side only, one value per patient, 10 = highest pain"}, "[6]": {"conditions": "Results with Lidocaine, right side, mask on one side only, one value per patient, 10 = highest pain"}, "[7]": {"conditions": "Table IX, CO2 procedure, unmasked side, per patient"}, "[8]": {"conditions": "Table VIII Pain Data, unmasked side, per patient"}, "[9]": {"conditions": "Table X, CO2 procedure, unmasked side, per patient"}, "[10]": {"conditions": "Table XII, unmasked side, 0-10 scale, per patient"}, "[11]": {"conditions": "Table IX, CO2 procedure, unmasked side"}, "[12]": {"conditions": "Table X, CO2 procedure, unmasked side"}, "[13]": {"conditions": "Table XI, unmasked side, 0-10 scale"}}, "note": "Values joined by “and” are separate entries in the source; they are usually repeats but may differ in a detail not shown here. Equal entries are not always repeated."}
{"smiles": "CCN(CC)CC(=O)Nc1c(C)cccc1C", "note": "[Lidocaine]", "values": [{"measurement": "Dryness Right side", "setting": "patients [1]", "result": "no"}, {"measurement": "Burning Right", "setting": "patients [1]; right side", "result": "no (2×) and yes"}, {"measurement": "Itching Right", "setting": "patients [1]; right side", "result": "no"}, {"measurement": "Redness Right", "setting": "patients [1]; right side", "result": "yes (2×) and no"}, {"measurement": "Stinging Right", "setting": "patients [1]; right side", "result": "yes (2×) and no"}, {"measurement": "Pain After proc. Cheeks (Left Side)", "setting": "patients [2]; 1-10 scale, 1 least pain, 10 highest, after Fraxel or CO2 procedure, cheeks, left side", "result": "10 and 6 and 5"}, {"measurement": "Pain After proc. Chin (Left Side)", "setting": "patients [2]; 1-10 scale, 1 least pain, 10 highest, after Fraxel or CO2 procedure, chin, left side", "result": "10 and 6 and 5"}, {"measurement": "Pain After proc. Forehead (Left Side)", "setting": "patients [2]; 1-10 scale, 1 least pain, 10 highest, after Fraxel or CO2 procedure, forehead, left side", "result": "10 and 6"}, {"measurement": "Average Right Side", "setting": "patients [2]; Pain Rate section, Results with Lidocaine, average pain, right side = side without mask, per patient", "result": "8.00 and 5.00 and 9.00 and 2.00"}, {"measurement": "Pain After proc. Cheeks (Right Side)", "setting": "patients [2]; [4]", "result": "8 and 5 and 9 and 2"}, {"measurement": "Pain After proc. Chin (Right Side)", "setting": "patients [2]; [4]", "result": "8 and 5 and 9 and 2"}, {"measurement": "Pain After proc. Forehead (Right Side)", "setting": "patients [2]; [4]", "result": "8 and 5 and 9 and 2"}, {"measurement": "Pain After proc. Mouth (Right Side)", "setting": "patients [2]; [4]", "result": "8 and 5 and 9 and 2"}, {"measurement": "Average Left Side", "setting": "patients [2]; Results with Lidocaine, average pain of mouth, cheeks, forehead, chin, left side, per patient", "result": "10.00 and 6.00 and 5.00"}, {"measurement": "Average Right Side", "setting": "patients [2]; Results with Lidocaine, average pain of mouth, cheeks, forehead, chin, right side, per patient", "result": "4.00 and 8.25 and 9.25 and 9.00 and 4.50 and 10.00"}, {"measurement": "Pain After proc. Cheeks (Left Side)", "setting": "patients [2]; [5]", "result": "10 and 6 and 5"}, {"measurement": "Pain After proc. Chin (Left Side)", "setting": "patients [2]; [5]", "result": "10 and 6 and 5"}, {"measurement": "Pain After proc. Forehead (Left Side)", "setting": "patients [2]; [5]", "result": "10 and 6 (2×)"}, {"measurement": "Pain After proc. Mouth (Left Side)", "setting": "patients [2]; [5]", "result": "10 and 6 and 4"}, {"measurement": "Pain After proc. Cheeks (Right Side)", "setting": "patients [2]; [6]", "result": "4 and 7 and 8 and 9 (2×) and 10"}, {"measurement": "Pain After proc. Chin (Right Side)", "setting": "patients [2]; [6]", "result": "4 and 6 (2×) and 8 and 9 and 10"}, {"measurement": "Pain After proc. Forehead (Right Side)", "setting": "patients [2]; [6]", "result": "4 (2×) and 10 (2×) and 8 and 9"}, {"measurement": "Pain After proc. Mouth (Right Side)", "setting": "patients [2]; [6]", "result": "4 (2×) and 10 (2×) and 8 and 9"}, {"measurement": "Pain After proc. Cheeks (Unmasked Side)", "setting": "patients [2]; [7]", "result": "8 (3×) and 9 and 2 and 5 and 6"}, {"measurement": "Pain After proc. Chin (Unmasked Side)", "setting": "patients [2]; [7]", "result": "8 (3×) and 9 and 2 and 5 and 6"}, {"measurement": "Pain After proc. Forehead (Unmasked Side)", "setting": "patients [2]; [7]", "result": "8 (3×) and 9 and 2 and 5 and 7"}, {"measurement": "Pain After proc. Mouth (Unmasked Side)", "setting": "patients [2]; [7]", "result": "8 (3×) and 9 and 2 and 5 and 6"}, {"measurement": "Average Pain (Unmasked Side)", "setting": "patients [2]; [8]", "result": "8 (3×) and 9 and 2 and 5 and 6.3"}, {"measurement": "Pain After proc. Cheeks (Unmasked Side)", "setting": "patients [2]; [8]", "result": "8 (3×) and 9 and 2 and 5 and 6"}, {"measurement": "Pain After proc. Chin (Unmasked Side)", "setting": "patients [2]; [8]", "result": "8 (3×) and 9 and 2 and 5 and 6"}, {"measurement": "Pain After proc. Forehead (Unmasked Side)", "setting": "patients [2]; [8]", "result": "8 (3×) and 9 and 2 and 5 and 7"}, {"measurement": "Pain After proc. Mouth (Unmasked Side)", "setting": "patients [2]; [8]", "result": "8 (3×) and 9 and 2 and 5 and 6"}, {"measurement": "Pain After proc. Cheeks (Unmasked Side)", "setting": "patients [2]; [9]", "result": "8 (3×) and 9 and 2 and 5 and 6"}, {"measurement": "Pain After proc. Chin (Unmasked Side)", "setting": "patients [2]; [9]", "result": "8 (3×) and 9 and 2 and 5 and 6"}, {"measurement": "Pain After proc. Forehead (Unmasked Side)", "setting": "patients [2]; [9]", "result": "8 (3×) and 9 and 2 and 5 and 7"}, {"measurement": "Pain After proc. Mouth (Unmasked Side)", "setting": "patients [2]; [9]", "result": "8 (3×) and 9 and 2 and 5 and 6"}, {"measurement": "Average Pain (Unmasked Side)", "setting": "patients [2]; Table XII summary, 0-10 scale, per patient", "result": "8 (3×) and 9 and 2 and 5 and 6.3"}, {"measurement": "Average Pain (Unmasked Side)", "setting": "patients [2]; [10]", "result": "8 (3×) and 9 and 2 and 5 and 6.3"}, {"measurement": "Pain After proc. Cheeks (Unmasked Side)", "setting": "patients [2]; [10]", "result": "8 (3×) and 9 and 2 and 5 and 6"}, {"measurement": "Pain After proc. Chin (Unmasked Side)", "setting": "patients [2]; [10]", "result": "8 (3×) and 9 and 2 and 5 and 6"}, {"measurement": "Pain After proc. Forehead (Unmasked Side)", "setting": "patients [2]; [10]", "result": "8 (3×) and 9 and 2 and 5 and 7"}, {"measurement": "Pain After proc. Mouth (Unmasked Side)", "setting": "patients [2]; [10]", "result": "8 (3×) and 9 and 2 and 5 and 6"}, {"measurement": "Numbness Cheeks- (Left Side)", "setting": "patients [3]; 1-10 scale, cheeks, left side", "result": "4 and 8 and 9 and 3"}, {"measurement": "Numbness Cheeks- (Right Side)", "setting": "patients [3]; 1-10 scale, cheeks, right side", "result": "7 (3×) and 3 and 5 and 4 and 6"}, {"measurement": "Numbness- Chin (Left Side)", "setting": "patients [3]; 1-10 scale, chin, left side", "result": "4 and 8 and 9 and 7"}, {"measurement": "Numbness- Chin (Right Side)", "setting": "patients [3]; 1-10 scale, chin, right side", "result": "3 and 4 (2×) and 5 and 7 (2×) and 6"}, {"measurement": "Numbness- Forehead (Left Side)", "setting": "patients [3]; 1-10 scale, forehead, left side", "result": "4 and 8 and 9 and 2"}, {"measurement": "Numbness- Forehead (Right Side)", "setting": "patients [3]; 1-10 scale, forehead, right side", "result": "4 (2×) and 3 and 6 (2×) and 7 and 8"}, {"measurement": "Numbness- Mouth (Left Side)", "setting": "patients [3]; 1-10 scale, mouth, left side", "result": "4 and 8 and 9 and 5"}, {"measurement": "Numbness- Mouth (Right Side)", "setting": "patients [3]; 1-10 scale, mouth, right side", "result": "5 and 3 and 6 (2×) and 7 and 4 and 8"}, {"measurement": "Numbness Cheeks- (Unmasked Side)", "setting": "patients [3]; [11]", "result": "8 (3×) and 6 (4×)"}, {"measurement": "Numbness- Chin (Unmasked Side)", "setting": "patients [3]; [11]", "result": "9 and 6 (4×) and 8 (2×)"}, {"measurement": "Numbness- Forehead (Unmasked Side)", "setting": "patients [3]; [11]", "result": "9 and 6 (4×) and 8 (2×)"}, {"measurement": "Numbness- Mouth (Unmasked Side)", "setting": "patients [3]; [11]", "result": "8 (3×) and 6 (4×)"}, {"measurement": "Numbness Cheeks- (Unmasked Side)", "setting": "patients [3]; [12]", "result": "8 (3×) and 6 (4×)"}, {"measurement": "Numbness- Chin (Unmasked Side)", "setting": "patients [3]; [12]", "result": "9 and 6 (4×) and 8 (2×)"}, {"measurement": "Numbness- Forehead (Unmasked Side)", "setting": "patients [3]; [12]", "result": "9 and 6 (4×) and 8 (2×)"}, {"measurement": "Numbness- Mouth (Unmasked Side)", "setting": "patients [3]; [12]", "result": "8 (3×) and 6 (4×)"}, {"measurement": "Numbness Average Unmasked Side", "setting": "patients [3]; Table XI summary, 0-10 scale", "result": "8.5 and 6 (4×) and 8 (2×)"}, {"measurement": "Average", "setting": "patients [3]; Table XI, average numbness, unmasked side, 0-10 scale", "result": "8.5 and 6 (4×) and 8 (2×)"}, {"measurement": "Numbness Cheeks- (Unmasked Side)", "setting": "patients [3]; [13]", "result": "8 (3×) and 6 (4×)"}, {"measurement": "Numbness- Chin (Unmasked Side)", "setting": "patients [3]; [13]", "result": "9 and 6 (4×) and 8 (2×)"}, {"measurement": "Numbness- Forehead (Unmasked Side)", "setting": "patients [3]; [13]", "result": "9 and 6 (4×) and 8 (2×)"}, {"measurement": "Numbness- Mouth (Unmasked Side)", "setting": "patients [3]; [13]", "result": "8 (3×) and 6 (4×)"}]}
